Holding throughout (assay type): cell-based
The subject of test [1] is human dermal fibroblasts from Parkinson's disease patients. Put plainly: Rescue of BSO-stressed fibroblasts from Parkinson's disease patients. To be noted: Fibroblast, PD fibroblasts AG20439, BSO stress, read-out: protection against PD, EC50. How it is done:
(§1) An initial screen was performed to identify compounds effective for the amelioration of redox disorders. Test samples, 4 reference compounds (Idebenone, decylubiquinone, Trolox and α-tocopherol acetate), and solvent controls were tested for their ability to rescue FRDA fibroblasts stressed by addition of L-buthionine-(S,R)-sulfoximine (BSO), as described in Jauslin et al., Hum. Mol. Genet. 11(24):3055 (2002), Jauslin et al., FASEB J. 17:1972-4 (2003), and International Patent Application WO 2004/003565. […] This specific BSO-mediated cell death can be prevented by administration of antioxidants or molecules involved in the antioxidant pathway, such as α-tocopherol, selenium, or small molecule glutathione peroxidase mimetics. However, antioxidants differ in their potency, i.e. the concentration at which they are able to rescue BSO-stressed FRDA fibroblasts.
(§2) Test samples were screened according to the following protocol: A culture with FRDA fibroblasts was started from a 1 ml vial with approximately 500,000 cells stored in liquid nitrogen. Cells were propagated in 10 cm cell culture dishes by splitting every third day in a ratio of 1:3 until nine plates were available. Once confluent, fibroblasts were harvested. For 54 micro titer plates (96 well-MTP) a total of 14.3 million cells (passage eight) were re-suspended in 480 ml medium, corresponding to 100 μl medium with 3,000 cells/well. The remaining cells were distributed in 10 cm cell culture plates (500,000 cells/plate) for propagation. The plates were incubated overnight at 37° C. in a atmosphere with 95% humidity and 5% CO2 to allow attachment of the cells to the culture plate.
(§3) MTP medium (243 μl) was added to a well of the microtiter plate. The test compounds were unfrozen, and 7.5 μl of a 5 mM stock solution was dissolved in the well containing 243 μl medium, resulting in a 150 μM master solution. Serial dilutions from the master solution were made. The period between the single dilution steps was kept as short as possible (generally less than 1 second).
(§4) Plates were kept overnight in the cell culture incubator. The next day, 10 μl of a 10 mM BSO solution were added to the wells, resulting in a 1 mM final BSO concentration. Forty-eight hours later, three plates were examined under a phase-contrast microscope to verify that the cells in the 0% control (wells E1-H1) were clearly dead. The medium from all plates was discarded, and the remaining liquid was removed by gently tapping the plate inversed onto a paper towel.
(§5) 100 μl of PBS containing 1.2 μM Calcein AM were then added to each well. The plates were incubated for 50-70 minutes at room temperature. After that time the PBS was discarded, the plate gently tapped on a paper towel and fluorescence (excitation/emission wavelengths of 485 nm and 525 nm, respectively) was read on a Gemini fluorescence reader. Data was imported into Microsoft Excel (EXCEL is a registered trademark of Microsoft Corporation for a spreadsheet program) and used to calculate the EC50 concentration for each compound.
Compounds of the invention were screened as described in Example A, but substituting FRDA cells with Parkinson's Disease (PD) cells obtained from the Coriell Cell Repositories (Camden, N.J.; repository number AG20439). The compounds were tested for their ability to rescue human dermal fibroblasts from Parkinson's disease patients from oxidative stress.

Test [2] concerns human dermal fibroblasts from Huntington's patients. Put plainly: Rescue of BSO-stressed fibroblasts from Huntington's patients. The settings on record: Fibroblast, Huntington's fibroblasts GM 04281, BSO stress, read-out: protection against Huntington's, EC50. How it is done: as §1, §2, §3, §4, §5
Compounds of the invention were tested using the screen as described in Example A, but substituting FRDA cells with Huntington's cells obtained from the Coriell Cell Repositories (Camden, N.J.; repository number GM 04281). The compounds were tested for their ability to rescue human dermal fibroblasts from Huntington's patients from oxidative stress.

Test [3] deals with human dermal fibroblasts from LHON patients. Put plainly: Rescue of BSO-stressed fibroblasts from LHON patients. The settings on record: Fibroblast, LHON fibroblasts GM03858, BSO stress, read-out: protection against LHON, EC50. How it is done: as §1, §2, §3, §4, §5
Compounds of the invention were screened as described in Example A, but substituting FRDA cells with Leber's Hereditary Optic Neuropathy (LHON) cells obtained from the Coriell Cell Repositories (Camden, N.J.; repository number GM03858). The compounds were tested for their ability to rescue human dermal fibroblasts from LHON patients from oxidative stress.

Test [4] relates to Human dermal fibroblasts from Friedreich's Ataxia patients. As to the kind of experiment: Rescue of BSO-stressed FRDA fibroblasts (Calcein AM viability). The settings on record: FRDA fibroblasts GM04078, BSO stress, read-out: protection against FRDA, EC50. How it is done:
as §1
MEM (a medium enriched in amino acids and vitamins, catalog no. 1-31F24-I) and Medium 199 (M199, catalog no. 1-21F22-I) with Earle's Balanced Salts, without phenol red, were purchased from Bioconcept. Fetal Calf Serum was obtained from PAA Laboratories. Basic fibroblast growth factor and epidermal growth factor were purchased from PeproTech. Penicillin-streptomycin-glutamine mix, L-buthionine (S,R)-sulfoximine, (+)-α-tocopherol acetate, decylubiquinone, and insulin from bovine pancreas were purchased from Sigma. Trolox (6-hydroxy-2,5,7,8-tetramethylchromane-2-carboxylic acid) was obtained from Fluka. Idebenone was obtained from Chemo Iberica. Calcein AM was purchased from Molecular Probes. Cell culture medium was made by combining 125 ml M 199 EBS, 50 ml Fetal Calf Serum, 100 U/ml penicillin, 100 μg/ml streptomycin, 2 mM glutamine, 10 μg/ml insulin, 10 ng/ml EGF, and 10 ng/ml bFGF; MEM EBS was added to make the volume up to 500 ml. A 10 mM BSO solution was prepared by dissolving 444 mg BSO in 200 ml of medium with subsequent filter-sterilization. During the course of the experiments, this solution was stored at +4° C. The cells were obtained from the Coriell Cell Repositories (Camden, N.J.; repository number GM04078) and grown in 10 cm tissue culture plates. Every third day, they were split at a 1:3 ratio.
The test samples were supplied in 1.5 ml glass vials. The compounds were diluted with DMSO, ethanol or PBS to result in a 5 mM stock solution. Once dissolved, they were stored at −20° C. Reference antioxidants (Idebenone, decylubiquinone, α-tocopherol acetate and trolox) were dissolved in DMSO.
as §2, §3
Plates were kept overnight in the cell culture incubator. The next day, 10 μl of a 10 mM BSO solution were added to the wells, resulting in a 1 mM final BSO concentration. Forty-eight hours later, three plates were examined under a phase-contrast microscope to verify that the cells in the 0% control (wells E1-H1) were clearly dead. […]

Bounds are passed on as bounds.

A word on the EC50: it is the concentration needed to bring the measured effect to its halfway point. Turning to `CC1=C(C)C(=O)C(c2cccc(C(F)(F)F)c2)=C(CCC(C)(C)O)C1=O` [Example 17, 2-(3-Hydroxy-3-methylbutyl)-5,6-dimethyl-3-(3-(trifluoromethyl)phenyl)cyclohexa-2,5-diene-1,4-dione], the EC50 in test [1], in test [2], in test [3] and in test [4] was less than 0.2 µM throughout.

With `CCc1ccc(C2=C(CCC(C)(C)O)C(=O)C(C)=C(C)C2=O)cc1` [Example 16, 2-(4-Ethylphenyl)-3-(3-hydroxy-3-methylbutyl)-5,6-dimethylcyclohexa-2,5-diene-1,4-dione], the EC50 in test [1], in test [2], in test [3] and in test [4] was less than 0.2 µM throughout.

As to `CC1=C(C)C(=O)C(c2ccccc2F)=C(CCC(C)(C)O)C1=O` [Example 22, 2-(2-Fluorophenyl)-3-(3-hydroxy-3-methylbutyl)-5,6-dimethylcyclohexa-2,5-diene-1,4-dione], the EC50 in test [2] is less than 0.2 µM.

As for `CC1=C(C)C(=O)C(CCC(C)(C)O)=C(CCCc2ccccc2)C1=O` [Example 24, 2-(3-Hydroxy-3-methylbutyl)-5,6-dimethyl-3-(3-phenylpropyl)cyclohexa-2,5-diene-1,4-dione], the EC50 in test [1], in test [2], in test [3] and in test [4] was less than 0.2 µM throughout.

Take `CC1=C(C)C(=O)C(c2ccc(C#N)cc2)=C(CCC(C)(C)O)C1=O` [4-(2-(3-hydroxy-3-methylbutyl)-4,5-dimethyl-3,6-dioxocyclohexa-1,4-dienyl)benzonitrile]: in test [2], the EC50 was less than 0.2 µM.

As for `CC1=C(C)C(=O)C(c2cccc(F)c2)=C(CCC(C)(C)O)C1=O` [Example 20, 2-(3-Fluorophenyl)-3-(3-hydroxy-3-methylbutyl)-5,6-dimethylcyclohexa-2,5-diene-1,4-dione], the EC50 in test [1], in test [2], in test [3] and in test [4] was less than 0.2 µM in each case.

Consider `CC1=C(C)C(=O)C(C(O)Cc2ccccc2)=C(CCC(C)(C)O)C1=O` (centres unmarked) [Example 26, 2-(1-Hydroxy-2-phenylethyl)-3-(3-hydroxy-3-methylbutyl)-5,6-dimethylcyclohexa-2,5-diene-1,4-dione], for which the EC50 in test [1], in test [2] and in test [4] was less than 0.2 µM throughout.

`CC1=C(C)C(=O)C(c2ccc(F)c(F)c2)=C(CCC(C)(C)O)C1=O` [Example 21, 2-(3,4-Difluorophenyl)-3-(3-hydroxy-3-methylbutyl)-5,6-dimethylcyclohexa-2,5-diene-1,4-dione]: the half-maximal effective concentration (EC50) in test [2], in test [3] and in test [4] was less than 0.2 µM in each case.

As for `CC1=C(C)C(=O)C(c2ccc(F)cc2)=C(CCC(C)(C)O)C1=O` [Example 9, 2-(4-Fluorophenyl)-3-(3-hydroxy-3-methylbutyl)-5,6-dimethylcyclohexa-2,5-diene-1,4-dione], the EC50 in test [2], in test [3] and in test [4] was less than 0.2 µM each time.

Regarding `CC1=C(C)C(=O)C(CCC(C)(C)O)=C(CCc2ccccc2)C1=O` [Example 25, 2-(3-Hydroxy-3-methylbutyl)-5,6-dimethyl-3-phenethylcyclohexa-2,5-diene-1,4-dione], the EC50 in test [1], in test [2] and in test [3] was less than 0.2 µM throughout.

With `CC1=C(C)C(=O)C(c2ccccc2)=C(CCC(C)(C)O)C1=O` [Example 10, 2-(3-Hydroxy-3-methylbutyl)-5,6-dimethyl-3-phenylcyclohexa-2,5-diene-1,4-dione], the EC50 in test [1] is less than 0.2 µM.

With `COc1cc(F)ccc1C1=C(CCC(C)(C)O)C(=O)C(C)=C(C)C1=O` [2-(4-fluoro-2-methoxyphenyl)-3-(3-hydroxy-3-methylbutyl)-5,6-dimethylcyclohexa-2,5-diene-1,4-dione], the EC50 in test [2] is less than 0.2 µM.

In the case of `CC1=C(CCC(C)(C)O)C(=O)C(c2ccc(C#N)cc2)=C(C)C1=O` [Example 3, 4-(5-(3-Hydroxy-3-methylbutyl)-2,4-dimethyl-3,6-dioxocyclohexa-1,4-dienyl)benzonitrile], the EC50 in test [1], in test [3] and in test [4] was less than 0.2 µM in each case.

As for `COc1cccc(C2=C(CCC(C)(C)O)C(=O)C(C)=C(C)C2=O)c1` [2-(3-hydroxy-3-methylbutyl)-3-(3-methoxyphenyl)-5,6-dimethyl-cyclohexa-2,5-diene-1,4-dione], the EC50 in test [2] was less than 0.2 µM.

On to `CC1=C(C)C(=O)C(c2ccc3c(c2)OCO3)=C(CCC(C)(C)O)C1=O` [2-(benzo[d][1,3]dioxol-5-yl)-3-(3-hydroxy-3-methylbutyl)-5,6-dimethylcyclohexa-2,5-diene-1,4-dione], for which the EC50 in test [2] was less than 0.2 µM.

With `COc1ccc(C2=C(CCC(C)(C)O)C(=O)C(C)=C(C)C2=O)cc1` [Example 12, 2-(3-Hydroxy-3-methylbutyl)-3-(4-methoxyphenyl)-5,6-dimethylcyclohexa-2,5-diene-1,4-dione], the EC50 in test [2] and in test [3] was less than 0.2 µM in each case.

`CC1=C(C)C(=O)C(Cc2ccccc2)=C(CCC(C)(C)O)C1=O` [Example 23, 2-Benzyl-3-(3-hydroxy-3-methylbutyl)-5,6-dimethylcyclohexa-2,5-diene-1,4-dione]: the EC50 in test [2], in test [3] and in test [4] was less than 0.2 µM in each case.

With `CC1=C(C)C(=O)C(c2cc3ccccc3o2)=C(CCC(C)(C)O)C1=O` [Example 14, 2-(Benzofuran-2-yl)-3-(3-hydroxy-3-methylbutyl)-5,6-dimethylcyclohexa-2,5-diene-1,4-dione], the EC50 in test [1] and in test [3] was less than 0.2 µM in each case.
